Results from ChEMBL document CHEMBL2029331, “Red fluorescent scaffold for highly sensitive protease activity probes” (Bioorg Med Chem Lett, 2012).
Active and inactive are the calls of the source. The calls are words filed in the database; no cut-off is given here.

Assays:
[1] = molecular target: Leucyl-cystinyl aminopeptidase (Homo sapiens) (UniProt Q9UIQ6); experiment: Activity of leucine aminopeptidase after 2.5 hrs by spectrophotometry
Caspase-3 (Homo sapiens) [2] = molecular target: T1, Caspase-3 (Homo sapiens) (UniProt P42574); experiment: Activity of caspase3 assessed as SiR600 release by measuring increase in fluorescence intensity at 2 uM after 10 hrs by FRET assay relative to control
T1 sequence (whole entry): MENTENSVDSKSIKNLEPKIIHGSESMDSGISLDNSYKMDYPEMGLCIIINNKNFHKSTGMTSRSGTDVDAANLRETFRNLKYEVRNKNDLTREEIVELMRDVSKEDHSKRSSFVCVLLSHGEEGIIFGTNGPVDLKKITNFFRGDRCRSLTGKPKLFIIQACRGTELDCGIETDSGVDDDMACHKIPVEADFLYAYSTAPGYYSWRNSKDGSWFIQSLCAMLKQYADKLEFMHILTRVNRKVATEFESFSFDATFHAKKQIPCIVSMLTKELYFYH

Caspase-3 (Homo sapiens) [3] = molecular target: T1, Caspase-3 (Homo sapiens); experiment: Activity of caspase3 assessed as Kcat/Km ratio after 10 hrs by spectrophotometry relative to Ac-DEVD-AMC

Chain of Leucyl-cystinyl aminopeptidase (Homo sapiens) (Q9UIQ6 whole entry): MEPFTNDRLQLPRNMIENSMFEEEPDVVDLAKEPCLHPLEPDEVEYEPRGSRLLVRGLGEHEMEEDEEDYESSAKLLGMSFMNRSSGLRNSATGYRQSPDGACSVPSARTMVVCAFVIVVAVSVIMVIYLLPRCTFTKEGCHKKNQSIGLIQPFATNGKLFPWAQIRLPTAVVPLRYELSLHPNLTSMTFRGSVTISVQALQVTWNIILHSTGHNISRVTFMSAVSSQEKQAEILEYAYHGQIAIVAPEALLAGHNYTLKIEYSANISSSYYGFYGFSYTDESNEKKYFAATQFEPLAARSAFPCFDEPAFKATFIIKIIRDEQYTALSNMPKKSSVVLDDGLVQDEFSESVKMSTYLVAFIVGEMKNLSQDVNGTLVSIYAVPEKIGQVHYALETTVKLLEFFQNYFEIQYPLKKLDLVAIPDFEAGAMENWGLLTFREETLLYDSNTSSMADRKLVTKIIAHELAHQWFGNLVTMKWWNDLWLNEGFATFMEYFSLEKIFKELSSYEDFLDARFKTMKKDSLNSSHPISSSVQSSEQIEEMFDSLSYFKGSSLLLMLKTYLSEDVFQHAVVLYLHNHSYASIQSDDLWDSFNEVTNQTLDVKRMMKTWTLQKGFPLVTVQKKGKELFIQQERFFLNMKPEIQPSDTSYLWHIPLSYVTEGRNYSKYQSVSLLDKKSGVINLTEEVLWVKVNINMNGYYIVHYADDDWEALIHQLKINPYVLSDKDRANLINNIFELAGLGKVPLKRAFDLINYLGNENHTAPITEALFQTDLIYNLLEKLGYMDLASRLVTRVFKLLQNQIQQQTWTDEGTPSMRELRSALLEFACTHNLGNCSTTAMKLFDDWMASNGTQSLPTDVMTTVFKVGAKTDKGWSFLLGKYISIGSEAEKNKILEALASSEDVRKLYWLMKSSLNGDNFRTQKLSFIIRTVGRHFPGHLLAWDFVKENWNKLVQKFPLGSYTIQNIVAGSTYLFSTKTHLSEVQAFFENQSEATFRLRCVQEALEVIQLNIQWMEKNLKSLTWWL

Activity [1]: Active | fold change (FC) (Caspase-3 (Homo sapiens) [2]): 432 | fold change (FC) (Caspase-3 (Homo sapiens) [3]): 40
SMILES: Cc1ccccc1C1=C2C=CC(=N)C=C2[Si](C)(C)c2cc(NC(=O)[C@H](CC(=O)O)NC(=O)[C@@H](NC(=O)[C@H](CCC(=O)O)NC(=O)[C@H](CC(=O)O)NC(=O)OCc3ccccc3)C(C)C)ccc21
